Experimental data: US7671242B2 (priority 2005, dated 2010)
Converted amounts (≈) assume the structure as drawn. Like-named read-outs stand apart in the source and are kept apart here.

Legend:
[1] = cited from earlier work
[2] = cited from earlier work; remark: listed apart in the source
[3] = format: physicochemical; details: lipoxidase treatment at 37° C., hexane:ethyl ether extraction, HPLC
[4] = cited from earlier work; remark: listed apart in the source

| Compound | Lipid and water solubility [1] | Stability ([2]; light and oxygen) | Stability ([2]; stored at −20° C. under a nitrogen atmosphere) | initial lutein recovered after enzyme treatment [3] | Solubility ([4]; Ethyl acetate) [µg/mL] | Solubility ([4]; Methyl tert butyl ether) [µg/mL] | Solubility in nonpolar and polar solvents ([4]; nonpolar and polar solvents) | Solubility in water ([4]; water) |
| --- | --- | --- | --- | --- | --- | --- | --- | --- |
| aflatoxin B1 [AFB1] | both lipid and water soluble |  |  |  |  |  |  |  |
| CC1=C[C@H](O)CC(C)(C)[C@H]1/C=C/C(C)=C/C=C/C(C)=C/C=C/C=C(C)/C=C/C=C(C)/C=C/C1=C(C)C[C@@H](O)CC1(C)C [Lutein, 3,3′-dihydroxy-alpha-carotene] |  | Unstable to light and oxygen; | Stable if stored at −20 °C under a nitrogen | Approximately 88% | 800 (≈ 1410 µM) | 2000 (≈ 3520 µM) | soluble in both nonpolar and polar solvents | Insoluble |
